Reference: ChEMBL document CHEMBL1149677, “Synthesis of fluorescent and photoaffinity-labeled derivatives of bisphenol A and their inhibitory activity toward hypoxic expression of erythropoietin” (Bioorg Med Chem Lett, 2007)
Calls of active or inactive are those of the source. No cut-off for these calls is given here.

What was measured:
Type in all cases: functional, cell-based
[1] = system: Hep 3B2; experiment: Inhibition of erythropoietin expression in human Hep3B cells
[2] = system: Hep 3B2; experiment: Inhibition of erythropoietin expression in human Hep3B cells at 200 uM
[3] = system: Hep 3B2; experiment: Inhibition of erythropoietin expression in human Hep3B cells at 300 uM

Row | SMILES | Activity [1] | also measured
1 | COCOc1ccc(C(C)(C)c2ccc(OCCCCOc3ccc(C4(C(F)(F)F)N=N4)cc3)cc2)cc1 | inactive | 
2 | CC(C)(c1ccc(OCCCCNc2ccc([N+](=O)[O-])c3nonc23)cc1)c1ccc(OCCCCOc2ccc(C3(C(F)(F)F)N=N3)cc2)cc1 |  | Activity [2]: Active
3 | CC(C)(c1ccc(O)cc1)c1ccc(OCCCCNc2ccc([N+](=O)[O-])c3nonc23)cc1 | Active | 
4 | CC(C)(c1ccc(OCCNc2ccc([N+](=O)[O-])c3nonc23)cc1)c1ccc(OCCOc2ccc(C3(C(F)(F)F)N=N3)cc2)cc1 |  | Activity [3]: Active
5 | COCOc1ccc(C(C)(C)c2ccc(OCCCCNc3ccc([N+](=O)[O-])c4nonc34)cc2)cc1 | Active | 
